From patent publication US20100173995A1, “Use of PPAR-alpha activator as inflammatory skin disease-treating agent and method for treating skin diseases using the same” (Neopharm Co., Ltd., priority 2009, published 2010) come the findings set out here.

One data set has as its system rats. In words: Single dose oral toxicity test using rats. Type of data set: in vivo, rat. As to the method: (§1) In order to evaluate the safety of the PPAR-α activator compound according to the present invention for application as a skin external preparation, an animal toxicity test and a human patch test were performed.
(§2) To perform this evaluation, a single dose oral toxicity test using rats, a skin irritation test using rabbits, a skin sensitization test using guinea pigs and an ophthalmic mucous membrane irritation test using rabbits were performed as toxicity tests for PC-9S in animals. Those tests were performed based on “Toxicity Test Standards for Pharmaceutical Products” disclosed by the Korea Food & Drug Administration. Additionally, a human patch test for PC-9S was carried out on 30 subjects (average age: 24.1). […] However, when evaluating the overall results obtained from the other toxicity tests and the human patch test, it was considered that the pseudo-ceramide compound would not pose a safety problem.

The test system of data set [1] is rabbits. In words: Ophthalmic mucous membrane irritation test using rabbits. In kind it is in vivo, rabbit. As to the method: as §1, §2
Another data set relates to human skin. The experiment in a line: Human patch test. As to conditions: 30 subjects. In kind it is in vivo. As to the method: as §1, §2
The test system of data set [2] is rabbits. The experiment in a line: Skin irritation test using rabbits. Type of data set: in vivo, rabbit. As to the method:
as §1, §2

In the next data set the test system is guinea pigs. The experiment in a line: Skin sensitization test using guinea pigs. In kind it is in vivo, guinea pig. Here is the method:
as §1, §2

In the case of `CCCCCCCCCCCCCCCCCC(=O)C(CCCCCCCCCCCCCCCC)C(=O)NCCO` (stereo not drawn) [PC-9S], in the data set on rats, the “Single dose oral toxicity test (toxicity test) result” value is “No irritation”. Moreover, in the data set with rabbits [1], the “Ophthalmic mucous membrane irritation test using rabbits result” value was “No irritation”. Moreover, the “Human patch test result” value in the data set with human skin (1% PC-9S) and in the data set with human skin (10% PC-9S) was “No irritation” in each case. For the same molecule, the “Skin irritation test using rabbits result” value in the data set on rabbits [2] is “slight skin irritation”. In the data set with guinea pigs, the “Skin sensitization test using guinea pigs result” value is on record as “No irritation”.
